Measurements published in patent publication US20150017636A1, “Detection and Monitoring of Macrocyclic Lactone Resistance in Nematodes” (priority 2013, published 2015).
Where two headings read alike, the source gives them in different places.

Assays:
Haemonchus contortus = settings: cited from earlier work
C. elegans IVR10 strain = experiment: Rescue of Dyf7 gene in IVR10: ivermectin sensitivity of transgenic worms on NGM plates; assay type: in vivo, Caenorhabditis elegans; settings: Dyf7 ttx 1 and Dyf7 ttx 2 strains (IVR10 with wildtype Dyf7 transgene), 6 ng/mL ivermectin, plated as eggs, scored at two days
Method: FIG. 2 illustrates the rescue of Dyf7 gene in C. elegans IVR10 strain. Effect of Dyf7 rescued (strains Dyf7 ttx 1 and Dyf7 ttx 2) on ivermectin sensitivity. Strains “ttx ctrl 1” and “ttx ctrl 2” contain only the ttx-3:GFP transgenic marker. Results are shown as the percentage of growth of transgenic nematodes (as measured by GFP expression) in function of the type of transgenic nematode and treatment.
The wild-type Bristol N2 C. elegans strain was cultured in nematode growth medium (NGM) with OP50 Escherichia coli under standard conditions (Brenner, 1974). The IVR6 and IVR10 resistant strains to ivermectin were derived from Bristol N2, by successive increasing concentrations of ivermectin (James and Davey, 2009). […]
Genomic DNA extracted from C. elegans C43C3 cosmid (provided by the Sanger Institute, UK) was used to amplify the Dyf7 gene using the primers Dyf7-CeB-sense-5′-[…]-3′ (SEQ ID NO: 3) and Dyf7-CeB-antisense-5′-CTCATTTCTGGTCAAACG-3′ (SEQ ID NO: 4). […] The worms were separated into transgenic and non-transgenic based on GFP expression (green channel) and then each population scored for resistance phenotype.
To determine if the Dyf7 rescuing fragment rescues the ivermectin-sensitivity phenotype of IVR10, each strain was plated, as eggs, onto NGM plates containing 6 ng/mL ivermectin and DMSO control plates. At two days, the L4 and adult worms were scored for presence of the transgene. […]

Q: For ivermectin, which “IVM Drug Phenotype” value (Haemonchus contortus; isolate 1202, Brazil) is on record?
A: The value was “Resistant”.

Q: And the “IVM Drug Phenotype” value (Haemonchus contortus; isolate CRA, RSA)?
A: The value was “Susceptible”.

Q: And the “IVM Drug Phenotype” value (Haemonchus contortus; isolate Cedara, RSA)?
A: The value was “Resistant”.

Q: And the “IVM Drug Phenotype” value (Haemonchus contortus; isolate Coruzu, Argentina)?
A: The value was “Resistant”.

Q: And the “IVM Drug Phenotype” value (Haemonchus contortus; isolate F15, Brazil)?
A: The value was “Resistant”.

Q: And the “IVM Drug Phenotype” value (Haemonchus contortus; isolate Haecon, Australia)?
A: Its value is “Resistant”.

Q: And the “IVM Drug Phenotype” value (Haemonchus contortus; isolate Howick, RSA)?
A: The value was “Resistant”.

Q: And the “IVM Drug Phenotype” value (Haemonchus contortus; isolate ISE, UK)?
A: Its value is “Susceptible”.

Q: What about the “IVM Drug Phenotype” value (Haemonchus contortus; isolate Kokstad, RSA) of the same substance?
A: The value was “Resistant”.

Q: And the “IVM Drug Phenotype” value (Haemonchus contortus; isolate MOF23, USA)?
A: Its value is “Moderate Resistant”.

Q: And the “IVM Drug Phenotype” value (Haemonchus contortus; isolate MOF23-9*, USA, 23 generations of moxidectin selection)?
A: Its value is “Resistant”.

Q: What about the “IVM Drug Phenotype” value (Haemonchus contortus; isolate PF23, USA) of the same substance?
A: Its value is “Susceptible”.

Q: And the “IVM Drug Phenotype” value (Haemonchus contortus; isolate PF23-24, USA)?
A: Its value is “Susceptible”.

Q: And the “IVM Drug Phenotype” value (Haemonchus contortus; isolate Rog-gliswil, Switzerland)?
A: The value was “Resistant”.

Q: What about the “IVM Drug Phenotype” value (Haemonchus contortus; isolate SUL, Uruguay) of the same substance?
A: The value was “Resistant”.

Q: And the “IVM Drug Phenotype” value (Haemonchus contortus; isolate Sorin, France)?
A: Its value is “Susceptible”.

Q: What about the “IVM Drug Phenotype” value (Haemonchus contortus; isolate Wallangra 85, Australia) of the same substance?
A: The value was “Susceptible”.

Q: What about the “IVM Drug Phenotype” value (Haemonchus contortus; isolate Yallanbee, Australia) of the same substance?
A: Its value is “Susceptible”.

Q: What about the “IVM phenotype of the strain” value (Haemonchus contortus; strain IVF23, ivermectin selected from the PF strain) of the same substance?
A: The value was “resistant”.

Q: What about the “growth of transgenic worms (escape from L1 arrest, L4 and adult worms scored for the transgene)” value (C. elegans IVR10 strain) of the same substance?
A: The value was “no transgenic worms that escaped L1 arrest”.
